In article PMC6895180 (Nature Communications, 2019):
Several values for one entry are separate records, joined by “and”; a condition that tells them apart may be missing. Identical values can stand only once. Like-named read-outs stand apart in the source and are kept apart here.

Key:
T. brucei Squib 427 = assay: microbe, parasite or virus in culture; format: cell-based, Trypanosoma brucei brucei
[1] = test system: B48: pentamidine, diminazene and melaminophenyl arsenical resistant T. brucei line; assay: microbe, parasite or virus in culture; format: cell-based, Trypanosoma brucei brucei
P1 transporter = format: cell-based, Trypanosoma brucei
Experimental: Non-specific association of radiolabel with the cell pellet was determined using an identical incubation in the presence of saturating (1 mM) unlabelled adenosine.

[2] = test system: T. brucei BSF s427 wildtype cells; assay: Growth assays of T. brucei (trypanocidal/trypanostatic effect); format: cell-based, Trypanosoma brucei
Experimental: Growth assays of T. brucei
To test the effect of the novel adenosine analogues on the growth of T. brucei BSF, s427 wildtype cells were seeded at 1×10^5 cells mL-1 in 5 mL of HMI-9 medium with 10% FBS and treated with compounds […]
cells were also incubated in drug-free medium under the same conditions. 2 μM of 2’-deoxycoformycin were added to all cultures to avoid any potential effect of serum adenosine deaminase on the activity of test compounds and cordycepin.1
Cells were manually counted in Neubauer chambers at 0, 2, 4, 6, 8, 12, 24, 36 and 48 h after addition of […]
the drugs. […]
After 6 and 12 h after addition of drugs, approximately 2×10^6 cells were harvested from each group and applied to glass slides pre-treated with poly-L-lysine, left to settle for 5 min and fixed with 4% formaldehyde for 4 min. The formaldehyde was neutralised by addition of 100 mM glycine (20 min).
Cells were washed once with PBS and blocked for 1 h with 1% BSA/0.2% Tween-20 in PBS. Cells were […]

Nc1ncnc2c1ccn2[C@@H]1O[C@H](CO)C[C@H]1O [Compound 9, 3’-deoxytubercidin]
EC50 (T. brucei Squib 427; Trypanosoma brucei, Alamar blue cell viability assay, mean and SEM, read-out: T. b. brucei EC50): 48 ± 9 nM
EC50 (T. brucei Squib 427; Trypanosoma brucei, source data, read-out: T. brucei brucei EC50, Average): 47.7 nM
EC50 (T. brucei Squib 427; Trypanosoma brucei, source data, read-out: T. brucei brucei EC50, single measurements): 39.9 nM
SI (MRC/T.b. brucei) (T. brucei Squib 427; selectivity index): >1333
EC50 (T. brucei Squib 427; source data, read-out: T. brucei brucei EC50, single measurements): 65.2 nM and 38 nM
EC50 ([1]; Trypanosoma brucei, mean and SEM, n = 3, read-out: B48 EC50): 368 ± 13 nM
EC50 ([1]; Trypanosoma brucei, source data, read-out: B48 EC50, single determinations): 378 nM
EC50 ([1]; source data, read-out: B48 EC50, single determinations): 383 nM and 343 nM
Ki (P1 transporter; inhibition of [3H]adenosine uptake, mean ± SEM, n = 3, read-out: P1 transporter Ki): 99.9 ± 21.7 µM
Ki (P1 transporter; source data, read-out: P1 transporter Ki, AVG): 108 µM
AVG of cells/mL ([2]; 2xEC50, 2 h, experiment 1): 105000 cells/mL
Cells/mL ([2]; 2xEC50, 2 h, experiment 1): 117500 Cells/mL and 92500 Cells/mL
Counts ([2]; 2xEC50, 2 h, experiment 1): 47 and 37
AVG of cells/mL ([2]; 2xEC50, 2 h, experiment 2): 147500 cells/mL
Cells/mL ([2]; 2xEC50, 2 h, experiment 2): 140000 Cells/mL and 155000 Cells/mL
Counts ([2]; 2xEC50, 2 h, experiment 2): 56 and 62
AVG of cells/mL ([2]; 2xEC50, 4 h, experiment 1): 158750 cells/mL
Cells/mL ([2]; 2xEC50, 4 h, experiment 1): 160000 Cells/mL and 157500 Cells/mL
Counts ([2]; 2xEC50, 4 h, experiment 1): 63 and 64
AVG of cells/mL ([2]; 2xEC50, 4 h, experiment 2): 186250 cells/mL
Cells/mL ([2]; 2xEC50, 4 h, experiment 2): 177500 Cells/mL and 195000 Cells/mL
Counts ([2]; 2xEC50, 4 h, experiment 2): 78 and 71
AVG of cells/mL ([2]; 2xEC50, 6 h, experiment 1): 160000 cells/mL
Cells/mL ([2]; 2xEC50, 6 h, experiment 1): 170000 Cells/mL and 150000 Cells/mL
Counts ([2]; 2xEC50, 6 h, experiment 1): 68 and 60
AVG of cells/mL ([2]; 2xEC50, 6 h, experiment 2): 210000 cells/mL
Cells/mL ([2]; 2xEC50, 6 h, experiment 2): 192500 Cells/mL and 227500 Cells/mL
Counts ([2]; 2xEC50, 6 h, experiment 2): 77 and 91
AVG of cells/mL ([2]; 2xEC50, 8 h, experiment 1): 167500 cells/mL
Cells/mL ([2]; 2xEC50, 8 h, experiment 1): 162500 Cells/mL and 172500 Cells/mL
Counts ([2]; 2xEC50, 8 h, experiment 1): 65 and 69
AVG of cells/mL ([2]; 2xEC50, 8 h, experiment 2): 156250 cells/mL
Cells/mL ([2]; 2xEC50, 8 h, experiment 2): 162500 Cells/mL and 150000 Cells/mL
Counts ([2]; 2xEC50, 8 h, experiment 2): 65 and 60
AVG of cells/mL ([2]; 2xEC50, 12 h, experiment 1): 152500 cells/mL
Cells/mL ([2]; 2xEC50, 12 h, experiment 1): 165000 Cells/mL and 140000 Cells/mL
Counts ([2]; 2xEC50, 12 h, experiment 1): 66 and 56
AVG of cells/mL ([2]; 2xEC50, 12 h, experiment 2): 145000 cells/mL
Cells/mL ([2]; 2xEC50, 12 h, experiment 2): 145000 Cells/mL
Counts ([2]; 2xEC50, 12 h, experiment 2): 58
AVG of cells/mL ([2]; 2xEC50, 24 h, experiment 1): 86250 cells/mL
Cells/mL ([2]; 2xEC50, 24 h, experiment 1): 77500 Cells/mL and 95000 Cells/mL
Counts ([2]; 2xEC50, 24 h, experiment 1): 31 and 38
AVG of cells/mL ([2]; 2xEC50, 24 h, experiment 2): 47500 cells/mL
Cells/mL ([2]; 2xEC50, 24 h, experiment 2): 37500 Cells/mL and 57500 Cells/mL
Counts ([2]; 2xEC50, 24 h, experiment 2): 15 and 23
AVG of cells/mL ([2]; 2xEC50, 36 h, experiment 1): 76250 cells/mL
Cells/mL ([2]; 2xEC50, 36 h, experiment 1): 87500 Cells/mL and 65000 Cells/mL
Counts ([2]; 2xEC50, 36 h, experiment 1): 35 and 26
AVG of cells/mL ([2]; 2xEC50, 36 h, experiment 2): 6250 cells/mL
Cells/mL ([2]; 2xEC50, 36 h, experiment 2): 7500 Cells/mL and 5000 Cells/mL
Counts ([2]; 2xEC50, 36 h, experiment 2): 3 and 2
Cells/mL ([2]; 2xEC50, 48 h, experiment 1): 0 Cells/mL
Counts ([2]; 2xEC50, 48 h, experiment 1): 0
AVG of cells/mL ([2]; 2xEC50, 48 h, experiment 2): 2500 cells/mL
effect on T. brucei bloodstream forms in culture (cidal/static) ([2]; 2× and 5× EC50): trypanocidal
AVG of cells/mL ([2]; 5xEC50, 2 h, experiment 1): 131250 cells/mL
Cells/mL ([2]; 5xEC50, 2 h, experiment 1): 135000 Cells/mL and 127500 Cells/mL
Counts ([2]; 5xEC50, 2 h, experiment 1): 54 and 51
AVG of cells/mL ([2]; 5xEC50, 2 h, experiment 2): 135000 cells/mL
Cells/mL ([2]; 5xEC50, 2 h, experiment 2): 127500 Cells/mL and 142500 Cells/mL
Counts ([2]; 5xEC50, 2 h, experiment 2): 51 and 57
AVG of cells/mL ([2]; 5xEC50, 4 h, experiment 1): 138750 cells/mL
Cells/mL ([2]; 5xEC50, 4 h, experiment 1): 117500 Cells/mL and 160000 Cells/mL
Counts ([2]; 5xEC50, 4 h, experiment 1): 64 and 47
AVG of cells/mL ([2]; 5xEC50, 4 h, experiment 2): 181250 cells/mL
Cells/mL ([2]; 5xEC50, 4 h, experiment 2): 177500 Cells/mL and 185000 Cells/mL
Counts ([2]; 5xEC50, 4 h, experiment 2): 74 and 71
AVG of cells/mL ([2]; 5xEC50, 6 h, experiment 1): 140000 cells/mL
Cells/mL ([2]; 5xEC50, 6 h, experiment 1): 127500 Cells/mL and 152500 Cells/mL
Counts ([2]; 5xEC50, 6 h, experiment 1): 51 and 61
AVG of cells/mL ([2]; 5xEC50, 6 h, experiment 2): 145000 cells/mL
Cells/mL ([2]; 5xEC50, 6 h, experiment 2): 135000 Cells/mL and 155000 Cells/mL
Counts ([2]; 5xEC50, 6 h, experiment 2): 54 and 62
AVG of cells/mL ([2]; 5xEC50, 8 h, experiment 1): 136250 cells/mL
Cells/mL ([2]; 5xEC50, 8 h, experiment 1): 115000 Cells/mL and 157500 Cells/mL
Counts ([2]; 5xEC50, 8 h, experiment 1): 46 and 63
AVG of cells/mL ([2]; 5xEC50, 8 h, experiment 2): 137500 cells/mL
Cells/mL ([2]; 5xEC50, 8 h, experiment 2): 135000 Cells/mL and 140000 Cells/mL
Counts ([2]; 5xEC50, 8 h, experiment 2): 54 and 56
AVG of cells/mL ([2]; 5xEC50, 12 h, experiment 1): 127500 cells/mL
Cells/mL ([2]; 5xEC50, 12 h, experiment 1): 135000 Cells/mL and 120000 Cells/mL
Counts ([2]; 5xEC50, 12 h, experiment 1): 54 and 48
AVG of cells/mL ([2]; 5xEC50, 12 h, experiment 2): 125000 cells/mL
Cells/mL ([2]; 5xEC50, 12 h, experiment 2): 125000 Cells/mL
Counts ([2]; 5xEC50, 12 h, experiment 2): 50
AVG of cells/mL ([2]; 5xEC50, 24 h, experiment 1): 47500 cells/mL
Cells/mL ([2]; 5xEC50, 24 h, experiment 1): 45000 Cells/mL and 50000 Cells/mL
Counts ([2]; 5xEC50, 24 h, experiment 1): 18 and 20
AVG of cells/mL ([2]; 5xEC50, 24 h, experiment 2): 25000 cells/mL
Cells/mL ([2]; 5xEC50, 24 h, experiment 2): 27500 Cells/mL and 22500 Cells/mL
Counts ([2]; 5xEC50, 24 h, experiment 2): 11 and 9
AVG of cells/mL ([2]; 5xEC50, 36 h, experiment 1): 22500 cells/mL
Cells/mL ([2]; 5xEC50, 36 h, experiment 1): 25000 Cells/mL and 20000 Cells/mL
Counts ([2]; 5xEC50, 36 h, experiment 1): 10 and 8
AVG of cells/mL ([2]; 5xEC50, 36 h, experiment 2): 3750 cells/mL
Cells/mL ([2]; 5xEC50, 36 h, experiment 2): 5000 Cells/mL and 2500 Cells/mL
Counts ([2]; 5xEC50, 36 h, experiment 2): 2 and 1
Cells/mL ([2]; 5xEC50, 48 h, experiment 1): 0 Cells/mL
Counts ([2]; 5xEC50, 48 h, experiment 1): 0
AVG of cells/mL ([2]; 5xEC50, 48 h, experiment 2): 0 cells/mL
Cells/mL ([2]; 5xEC50, 48 h, experiment 2): 0 Cells/mL
Counts ([2]; 5xEC50, 48 h, experiment 2): 0
